Reference: US20170038686A1, “ANTHRAQUINONE COMPOUND USED FOR COLOR FILTER OF LCD” (Rohm and Haas Electronic Materials LLC, priority 2014, published 2017)

Tests used:
Format in all cases: physicochemical
[1] = Solubility of dye in PGMEA; details: solvent PGMEA
[2] = Thermal stability of films (chromaticity difference ΔEab before/after hard baking); details: for ΔEab after baking at 230° C. for 1 h: film with alkaline soluble acrylic resin, hard bake 230° C. under air 1 h; for ΔEab after baking at 230° C. for another 1 h: film further baked at 230° C. under air for another 1 h
Description: For Inventive Example 1, 0.15 g of Dye 1, 1.35 g of PGMEA and 1 g of alkaline soluble acrylic resin solution (MIPHOTO RPR4022, supplied from Miwan Commercial Co., Ltd., 25 to 35% of solid content in methyl 3-methoxypropionate) were mixed and stirred for 2 hours at room temperature using a shaker. For Inventive Example 2, 0.15 g of a mixture of Dye land Dye 2 was used instead of Dye 1. The solutions were filtered with a 0.45 μm PTFE filter to get rid of big particles. Then the filtered solutions were spin coated onto a clean glass substrate with 200 and 270 rpm spin speed for 18 seconds respectively. The obtained films were first dried at 90° C. under air atmosphere for 30 minutes, and then hard baked at 230° C. under air atmosphere for 1 hour. The CIE values (xyY values and lab values) and the UV-Vis were measured before and after the hard bake.
The obtained dry films were further baked at 230° C. under air for 1 hour to evaluate thermal stability of the films. Optical performance after baking (AEab value) were 2.3 (Inventive Example 1) and 1.8 (Inventive Example 2), and the one of after further baking were 3.0 (Inventive Example 1) and 2.7 (Inventive Example 2). A smaller AEab value indicates better heat resistance.
(§1) <Performance Evaluation> • (1) Thermal stability of dyes (Mass loss measured by TGA): • The thermal stability of dye itself was determined by the mass loss of dye measured by TGA under air atmosphere at 230° C. for 1 hour. This evaluation reflects chemical stability of the dye itself. • (2) Film thickness: • Film thickness is measured by scanning the difference in height across the boundary of film and glass substrate with atomic force microscope. • (3) Chromaticity coordinates: • The chromaticity coordinate of film on a glass sheet is directly recorded with UltraScan Pro (Hunterlab) colorimeter. The light source is D65/10. • (4) Thermal stability of films (Chromaticity): • The wet film after spin coating is dried in oven at 90° C. for 30 minutes and then soft baked at 150° C. for 15 minutes. The chromaticity coordinates (L, a, b) are recorded with UltraScan Pro (Hunterlab) colorimeter. D65/10 light source is used and results are based on CIE Lab coordinates. After that the film is hard baked at target temperature (230° C.) for 1 hour and the new chromaticity coordinates (L′, a′, b′) are recorded with the method above. The thermal stability of a film is indicated by the difference of chromaticity coordinate before and after hard baking represented by the following formula;
ΔE=√{square root over ((L−L′)^2+(a−a′)^2+(b−b′)^2)}

[3] = Thermal stability of dyes (mass loss measured by TGA); details: 230° C. for 1 hour, air atmosphere
Description: as §1

Row | Compound | Solubility in PGMEA [1] [wt %] | ΔEab after baking at 230° C. for 1 h [2] | ΔEab after baking at 230° C. for another 1 h [2] | Mass loss by TGA after baking [3] [wt. %]
1 | CC(C)Nc1ccc(NC(C)C)c2c1C(=O)c1ccccc1C2=O [Solvent Blue 36] | 1.92 | 33 (color |  | 
2 | Cc1cc(C)c(Nc2ccc(Nc3c(C)cc(O)cc3C)c3c2C(=O)c2ccccc2C3=O)c(C)c1 [(1-((4-hydroxy-2,6-dimethylphenyl)amino)-4-(mesitylamino)-anthraquinone] | 2.8 | 6.8 | 6.0 | 
3 | Cc1cc(C)c(Nc2ccc(Nc3c(C)cc(OCC(O)COc4ccc(C(C)(C)c5ccc(OCC(O)COc6cc(C)c(Nc7ccc(Nc8c(C)cc(C)cc8C)c8c7C(=O)c7ccccc7C8=O)c(C)c6)cc5)cc4)cc3C)c3c2C(=O)c2ccccc2C3=O)c(C)c1 (stereo not drawn) [Dye 1] | 11.2 | 2.3 | 3.0 | 2
4 | Cc1cc(C)c(Nc2ccc(Nc3c(C)cc(C)cc3C)c3c2C(=O)c2ccccc2C3=O)c(C)c1 [Solvent Blue 104, 1,4-bis(mesitylamino)anthraquinone] | 0.6 | 7.9 | 6.1 | 
